Bridge positions count the residues as written; N and C are the ends. Square brackets hold non-standard residues; d marks the D form. Peptide text beside a SMILES is read from it. Hyp = O=C(O)[C@@H]1C[C@@H](O)CN1; Cit = NC(=O)NCCC[C@H](N)C(=O)O
Tests used:
[1] = Physical stability of peptide analogues (Thioflavin T fibrillation); format: physicochemical; conditions: maximum ThT signal normalized between hAMY maximum and buffer background; 40° C., shaking, four days; pH 7 per table title
Method in brief: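 Maximum ThT emission at 480 nm, after LOESS smoothing, is given as percent of the span from buffer background to hAMY. Conditions: 50 mM buffer at pH 4 or 7, 4 μM dye, 40 °C, repeated shaking, readings every 10 min for four days.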

hAMY3 receptor = target: T1, hAMY3 receptor (Homo sapiens, UniProt O60896+P30988); experiment: cAMP assay for in vitro receptor activation, hAMY3-R; format: cell-based; conditions: cAMP assay, hAMY3 receptor; read-out: hAMY3R EC50
T1 sequence (P30988 25-474): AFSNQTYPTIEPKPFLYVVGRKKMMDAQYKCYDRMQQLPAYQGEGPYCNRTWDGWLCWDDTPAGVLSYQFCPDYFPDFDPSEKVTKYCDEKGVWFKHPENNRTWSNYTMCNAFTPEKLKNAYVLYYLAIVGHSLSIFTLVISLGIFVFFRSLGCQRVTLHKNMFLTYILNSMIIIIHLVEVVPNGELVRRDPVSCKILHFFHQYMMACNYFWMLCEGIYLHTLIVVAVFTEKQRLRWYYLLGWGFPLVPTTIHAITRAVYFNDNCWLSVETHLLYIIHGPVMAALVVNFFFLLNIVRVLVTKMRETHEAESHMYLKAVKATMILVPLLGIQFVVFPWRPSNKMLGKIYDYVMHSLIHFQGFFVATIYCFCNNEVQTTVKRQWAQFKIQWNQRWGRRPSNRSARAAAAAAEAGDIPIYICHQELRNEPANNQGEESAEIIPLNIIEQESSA
T1 sequence (O60896 24-148 partner): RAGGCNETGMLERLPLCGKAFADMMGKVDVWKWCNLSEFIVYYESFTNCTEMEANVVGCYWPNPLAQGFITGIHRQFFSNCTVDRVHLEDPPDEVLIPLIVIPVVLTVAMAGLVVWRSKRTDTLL
Method in brief: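 Stable hAMY3 cells; DPBS + 0.05% casein + 0.5 mM IBMX; graded compound doses, 30 min, RT; cAMP via HTRF Gs kit, TR-FRET read at 1 h.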

| SMILES | Max ThT signal (%) [1] [%] | EC50 (hAMY3 receptor) [nM] |
| --- | --- | --- |
| CC[C@H](C)[C@H](NC(=O)[C@H](CCCCN)NC(=O)[C@H](CO)NC(=O)[C@H](CCCNC(=N)N)NC(=O)[C@@H]1CCCN1C(=O)[C@H](C)NC(=O)[C@@H](NC(=O)[C@H](CC(N)=O)NC(=O)[C@H](CC(=O)O)NC(=O)[C@H](CCCCN)NC(=O)[C@H](CC(=O)O)NC(=O)[C@H](CCCCN)NC(=O)[C@H](CC(=O)O)NC(=O)[C@@H](NC(=O)[C@H](Cc1ccccc1)NC(=O)[C@H](CCC(N)=O)NC(=O)[C@H](Cc1ccc(O)cc1)NC(=O)[C@@H](NC(=O)[C@H](CCC(N)=O)NC(=O)[C@H](Cc1c[nH]cn1)NC(=O)[C@H](C)NC(=O)[C@H](CC(C)C)NC(=O)[C@H](CCCNC(N)=O)NC(=O)[C@H](CCC(N)=O)NC(=O)[C@@H](NC(=O)[C@@H](NC(=O)[C@@H]1CSSC[C@H](NC(=O)CN)C(=O)N[C@@H](CCCNC(=N)N)C(=O)N[C@@H](Cc2ccccc2)C(=O)NCC(=O)N[C@@H]([C@@H](C)O)C(=O)N1)[C@@H](C)O)C(C)C)[C@@H](C)CC)[C@@H](C)O)C(C)C)C(=O)NCC(=O)N1CCC[C@H]1C(=O)N[C@@H](CCC(N)=O)C(=O)NCC(=O)N1C[C@H](O)C[C@H]1C(N)=O [compound 284] (H-GCRFGTCTVQ[Cit]LAHQIYQFTDKDKDNVAPRSKIGPQG[Hyp]-NH2; disulfide 2-7) | 21.300 | 0.028 |
| CC[C@H](C)[C@H](NC(=O)[C@H](CCC(N)=O)NC(=O)[C@H](Cc1c[nH]cn1)NC(=O)[C@H](C)NC(=O)[C@H](CC(C)C)NC(=O)[C@H](CCCNC(N)=O)NC(=O)[C@H](CCC(N)=O)NC(=O)[C@@H](NC(=O)[C@@H](NC(=O)[C@@H]1CSSC[C@H](NC(=O)CN)C(=O)N[C@@H](CCCNC(=N)N)C(=O)N[C@@H](Cc2ccccc2)C(=O)NCC(=O)N[C@@H]([C@@H](C)O)C(=O)N1)[C@@H](C)O)C(C)C)C(=O)N[C@@H](Cc1ccc(O)cc1)C(=O)N[C@@H](CCC(N)=O)C(=O)N[C@@H](Cc1ccccc1)C(=O)N[C@H](C(=O)N[C@@H](CC(=O)O)C(=O)N[C@@H](CCCCN)C(=O)N[C@@H](CC(=O)O)C(=O)N[C@@H](CCCCN)C(=O)N[C@@H](CC(=O)O)C(=O)N[C@@H](CC(N)=O)C(=O)N[C@H](C(=O)N[C@@H](C)C(=O)N1CCC[C@H]1C(=O)N[C@@H](CCCNC(=N)N)C(=O)N[C@@H](CO)C(=O)N[C@@H](CC(N)=O)C(=O)N[C@H](C(=O)N[C@@H](CO)C(=O)N1CCC[C@H]1C(=O)N[C@@H](CCC(N)=O)C(=O)NCC(=O)N[C@@H](Cc1ccc(O)cc1)C(N)=O)C(C)C)C(C)C)[C@@H](C)O [compound 286] (H-GCRFGTCTVQ[Cit]LAHQIYQFTDKDKDNVAPRSNVSPQGY-NH2; disulfide 2-7; N-terminus assumed) | 2.900 | 0.025 |
| CC[C@H](C)[C@H](NC(=O)[C@H](CCC(N)=O)NC(=O)[C@H](Cc1c[nH]cn1)NC(=O)[C@H](C)NC(=O)[C@H](CC(C)C)NC(=O)[C@H](CCCNC(N)=O)NC(=O)[C@H](CCC(N)=O)NC(=O)[C@@H](NC(=O)[C@@H](NC(=O)[C@@H]1CSSC[C@H](NC(=O)CN)C(=O)N[C@@H](CCCNC(=N)N)C(=O)N[C@@H](Cc2ccccc2)C(=O)NCC(=O)N[C@@H]([C@@H](C)O)C(=O)N1)[C@@H](C)O)C(C)C)C(=O)N[C@@H](Cc1ccc(O)cc1)C(=O)N[C@@H](CCC(N)=O)C(=O)N[C@@H](Cc1ccccc1)C(=O)N[C@H](C(=O)N[C@@H](CC(=O)O)C(=O)N[C@@H](CCCCN)C(=O)N[C@@H](CC(=O)O)C(=O)N[C@@H](CCCCN)C(=O)N[C@@H](CC(=O)O)C(=O)N[C@@H](CC(N)=O)C(=O)N[C@H](C(=O)N[C@@H](C)C(=O)N1CCC[C@H]1C(=O)N[C@@H](CCCNC(=N)N)C(=O)N[C@@H](CO)C(=O)N[C@@H](CC(N)=O)C(=O)N[C@H](C(=O)NCC(=O)N1CCC[C@H]1C(=O)N[C@@H](CCC(N)=O)C(=O)NCC(=O)N1C[C@H](O)C[C@H]1C(N)=O)C(C)C)C(C)C)[C@@H](C)O [compound 289] (H-GCRFGTCTVQ[Cit]LAHQIYQFTDKDKDNVAPRSNVGPQG[Hyp]-NH2; disulfide 2-7; N-terminus assumed) | 21.150 | 0.005 |
| CC[C@H](C)[C@H](NC(=O)[C@H](CCC(N)=O)NC(=O)[C@H](Cc1c[nH]cn1)NC(=O)[C@H](C)NC(=O)[C@H](CC(C)C)NC(=O)[C@H](CCCNC(N)=O)NC(=O)[C@H](CCC(N)=O)NC(=O)[C@@H](NC(=O)[C@@H](NC(=O)[C@@H]1CSSC[C@H](NC(=O)CN)C(=O)N[C@@H](CCCNC(=N)N)C(=O)N[C@@H]([C@@H](C)O)C(=O)NCC(=O)N[C@@H]([C@@H](C)O)C(=O)N1)[C@@H](C)O)C(C)C)C(=O)N[C@@H](Cc1ccc(O)cc1)C(=O)N[C@@H](CCC(N)=O)C(=O)N[C@@H](Cc1ccccc1)C(=O)N[C@H](C(=O)N[C@@H](CC(=O)O)C(=O)N[C@@H](CCCCN)C(=O)N[C@@H](CC(=O)O)C(=O)N[C@@H](CCCCN)C(=O)N[C@@H](CC(=O)O)C(=O)N[C@@H](CC(N)=O)C(=O)N[C@H](C(=O)N[C@@H](C)C(=O)N1CCC[C@H]1C(=O)N[C@@H](CCCNC(=N)N)C(=O)N[C@H](C(=O)N[C@@H](CC(N)=O)C(=O)N[C@H](C(=O)N[C@@H](CO)C(=O)N1CCC[C@H]1C(=O)N[C@@H](CC(N)=O)C(=O)NCC(=O)N1C[C@H](O)C[C@H]1C(N)=O)C(C)C)[C@@H](C)O)C(C)C)[C@@H](C)O [compound 302] (H-GCRTGTCTVQ[Cit]LAHQIYQFTDKDKDNVAPRTNVSPNG[Hyp]-NH2; disulfide 2-7; N-terminus assumed) | 24.250 | 0.071 |
| CC[C@H](C)[C@H](NC(=O)[C@H](CCC(N)=O)NC(=O)[C@H](Cc1c[nH]cn1)NC(=O)[C@H](C)NC(=O)[C@H](CC(C)C)NC(=O)[C@H](Cc1c[nH]c2ccccc12)NC(=O)[C@H](CCC(N)=O)NC(=O)[C@@H](NC(=O)[C@@H](NC(=O)[C@@H]1CSSC[C@H](NC(=O)CN)C(=O)N[C@@H](CCCNC(=N)N)C(=O)N[C@@H](Cc2ccccc2)C(=O)NCC(=O)N[C@@H]([C@@H](C)O)C(=O)N1)[C@@H](C)O)C(C)C)C(=O)N[C@@H](Cc1ccc(O)cc1)C(=O)N[C@@H](CCC(N)=O)C(=O)N[C@@H](Cc1ccccc1)C(=O)N[C@H](C(=O)N[C@@H](CC(=O)O)C(=O)N[C@@H](CCCCN)C(=O)N[C@@H](CC(=O)O)C(=O)N[C@@H](CCCCN)C(=O)N[C@@H](CC(=O)O)C(=O)N[C@@H](CC(N)=O)C(=O)N[C@H](C(=O)N[C@@H](C)C(=O)N1CCC[C@H]1C(=O)N[C@@H](CCCNC(=N)N)C(=O)N[C@H](C(=O)N[C@@H](CCCCN)C(=O)N[C@H](C(=O)NCC(=O)N1CCC[C@H]1C(=O)N[C@@H](CCC(N)=O)C(=O)NCC(=O)N1C[C@H](O)C[C@H]1C(N)=O)C(C)C)[C@@H](C)O)C(C)C)[C@@H](C)O [compound 322] (H-GCRFGTCTVQWLAHQIYQFTDKDKDNVAPRTKVGPQG[Hyp]-NH2; disulfide 2-7; N-terminus assumed) | 18.400 | 0.014 |

From US12139520B2 (priority 2020, dated 2024)
